# From patent US8338565B2, “Macrocyclic compounds for inhibition of tumor necrosis factor alpha” (Ensemble Therapeutics Corporation, priority 2008, dated 2012)
# Numbered stars: 1 amine (or outer) side, 2 acyl side, 3 side chain; on linkers, the order of the positions; unused ones are H or OH. Bridge positions count the residues as written; N and C are the ends. Square brackets hold non-standard residues; d marks the D form. Peptide text beside a SMILES is read from it. * marks the point of attachment. dPhe(3-CF3) = N[C@H](Cc1cccc(C(F)(F)F)c1)C(=O)O; dPhe(4-CF3) = N[C@H](Cc1ccc(C(F)(F)F)cc1)C(=O)O; dPhe(2-CF3) = N[C@H](Cc1ccccc1C(F)(F)F)C(=O)O; Bip = N[C@@H](Cc1ccc(-c2ccccc2)cc1)C(=O)O; Phe(3-OMe) = COc1cccc(C[C@H](N)C(=O)O)c1; dPhe(4-Cl) = N[C@H](Cc1ccc(Cl)cc1)C(=O)O; Phe(4-NH2) = Nc1ccc(C[C@H](N)C(=O)O)cc1; dPhe(2-Me) = Cc1ccccc1C[C@@H](N)C(=O)O; d(β3hF) = N[C@@H](CC(=O)O)Cc1ccccc1; dNMeF = CN[C@H](Cc1ccccc1)C(=O)O; Cha = N[C@@H](CC1CCCCC1)C(=O)O; d2Thi = N[C@H](Cc1cccs1)C(=O)O; d3Thi = N[C@H](Cc1ccsc1)C(=O)O; dPhg = N[C@@H](C(=O)O)c1ccccc1; Suc = O=C(CCC(=O)[*:2])[*:1]; OtBu = CC(C)(C)O*; tBu = CC(C)(C)*
# Target: T1, TNFα / TNFα receptor (TNFα R1/Fc) (Homo sapiens, UniProt P01375)
# T1 construct: purchased R&D Systems
# Assay: Inhibition of binding of TNFα to the TNFα receptor (plate ELISA competition)
# Conditions: Table 2; read-out: Activity (IC50, inhibition of TNFα binding to TNFα R1/Fc)
# Method: The compounds listed in Table 2 below were assayed for ability to inhibit binding of TNFα to the TNFα receptor (TNFα R1/Fc). The assays were performed as described in the following procedure: TNFα (R&D Systems) was coated on high binding plate wells (Corning 96-well) at a single uniform concentration of 15 nM, 100 μL/well in PBS. The coating proceeded for 30 minutes at 37° C. then 10 minutes at 4° C. The coated plate was washed with PBST, then 250 μL/well of blocking solution (PBST 0.1% BSA, bovine serum albumin) was added and incubation proceeded for 30-45 minutes at room temperature with agitation. The solution phase competition proceeded separately with the dilutions of test compound in PBST (phosphate buffered saline with Tween 20), 2% DMSO in a polypropylene plate (Corning 96-well storage plate) with a single concentration, 8.33 nM of the high affinity receptor for TNFα (R&D Systems). This solution phase incubation proceeded for 30 minutes at room temperature with agitation and was then added to the washed TNFα coated assay plate, 100 μL/well, and was incubated for a further 30 minutes at room temperature with agitation. The assay plate was washed and 100 μL goat anti-human IgG (Fc) HRP labeled antibody in PBST, 13 pM, (KPL Cat#04-10-2) was added to each well. This incubation proceeded for 25-30 minutes at room temperature with agitation. Following this incubation step, the plate was washed and a 100 μL TMB solution (SUREBLUE™ TMB Peroxidase substrate, KPL) was added per well and allowed to stand approximately 3-5 minutes for development. The TMB reaction was stopped with the addition of 0.5N HCl and then the plate was read for absorbance at 450 nm.
# T1 sequence (P01375 77-233 limits assumed, species assumed): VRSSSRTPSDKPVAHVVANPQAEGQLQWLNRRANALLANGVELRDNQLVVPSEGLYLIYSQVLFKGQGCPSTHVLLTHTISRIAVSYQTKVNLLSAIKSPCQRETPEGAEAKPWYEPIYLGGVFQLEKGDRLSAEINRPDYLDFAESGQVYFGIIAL
row,Structure (SMILES),IC50
1,O=C1CCC(=O)N[C@H](Cc2cccs2)C(=O)N[C@@H](Cc2ccc(-c3ccccc3)cc2)C(=O)N[C@H](Cc2ccccc2)CC(=O)N[C@H](C(=O)O)Cc2ccc(cc2)N1 [Compound 56] ([d2Thi][Bip][d(β3hF)][Phe(4-NH2)]-OH; linker N-4 via Suc),> 100 µM
2,CN1C(=O)[C@H](Cc2ccc(-c3ccccc3)cc2)NC(=O)[C@@H](Cc2cccs2)NC(=O)CCC(=O)Nc2ccc(cc2)C[C@@H](C(=O)O)NC(=O)[C@H]1Cc1ccccc1 [Compound 57] ([d2Thi][Bip][dNMeF][Phe(4-NH2)]-OH; linker N-4 via Suc),> 100 µM
3,O=C1CCC(=O)N[C@H](Cc2cccs2)C(=O)N[C@@H](Cc2ccc(-c3ccccc3)cc2)C(=O)N[C@@H](Cc2ccc(O)cc2)C(=O)N[C@H](C(=O)O)Cc2ccc(cc2)N1 [Compound 58] ([d2Thi][Bip]Y[Phe(4-NH2)]-OH; linker N-4 via Suc),> 100 µM
4,O=C1CCC(=O)N[C@H](Cc2cccs2)C(=O)N[C@@H](Cc2ccc(-c3ccccc3)cc2)C(=O)N[C@H](Cc2ccc(O)cc2)C(=O)N[C@H](C(=O)O)Cc2ccc(cc2)N1 [Compound 59] ([d2Thi][Bip][dY][Phe(4-NH2)]-OH; linker N-4 via Suc),> 100 µM
5,O=C1CCC(=O)N[C@H](Cc2cccs2)C(=O)N[C@@H](Cc2ccc(-c3ccccc3)cc2)C(=O)N[C@@H](CO)C(=O)N[C@H](C(=O)O)Cc2ccc(cc2)N1 [Compound 60] ([d2Thi][Bip]S[Phe(4-NH2)]-OH; linker N-4 via Suc),> 100 µM
6,O=C1CCC(=O)N[C@H](Cc2cccs2)C(=O)N[C@@H](Cc2ccc(-c3ccccc3)cc2)C(=O)N[C@H](CO)C(=O)N[C@H](C(=O)O)Cc2ccc(cc2)N1 [Compound 61] ([d2Thi][Bip][dS][Phe(4-NH2)]-OH; linker N-4 via Suc),> 100 µM
7,CC(C)(C)OC(=O)C[C@@H]1NC(=O)[C@H](Cc2ccc(-c3ccccc3)cc2)NC(=O)[C@@H](Cc2cccs2)NC(=O)CCC(=O)Nc2ccc(cc2)C[C@@H](C(=O)O)NC1=O [Compound 62] ([d2Thi][Bip]D(OtBu)[Phe(4-NH2)]-OH; linker N-4 via Suc),> 100 µM
8,CC(C)(C)OC(=O)C[C@H]1NC(=O)[C@H](Cc2ccc(-c3ccccc3)cc2)NC(=O)[C@@H](Cc2cccs2)NC(=O)CCC(=O)Nc2ccc(cc2)C[C@@H](C(=O)O)NC1=O [Compound 63] ([d2Thi][Bip][dD](OtBu)[Phe(4-NH2)]-OH; linker N-4 via Suc),> 100 µM
9,O=C(O)C[C@@H]1NC(=O)[C@H](Cc2ccc(-c3ccccc3)cc2)NC(=O)[C@@H](Cc2cccs2)NC(=O)CCC(=O)Nc2ccc(cc2)C[C@@H](C(=O)O)NC1=O [Compound 64] ([d2Thi][Bip]D[Phe(4-NH2)]-OH; linker N-4 via Suc),> 100 µM
10,O=C(O)C[C@H]1NC(=O)[C@H](Cc2ccc(-c3ccccc3)cc2)NC(=O)[C@@H](Cc2cccs2)NC(=O)CCC(=O)Nc2ccc(cc2)C[C@@H](C(=O)O)NC1=O [Compound 65] ([d2Thi][Bip][dD][Phe(4-NH2)]-OH; linker N-4 via Suc),> 100 µM
11,CC(C)(C)OC(=O)CC[C@@H]1NC(=O)[C@H](Cc2ccc(-c3ccccc3)cc2)NC(=O)[C@@H](Cc2cccs2)NC(=O)CCC(=O)Nc2ccc(cc2)C[C@@H](C(=O)O)NC1=O [Compound 66] ([d2Thi][Bip]E(OtBu)[Phe(4-NH2)]-OH; linker N-4 via Suc),> 100 µM
12,CC(C)(C)OC(=O)CC[C@H]1NC(=O)[C@H](Cc2ccc(-c3ccccc3)cc2)NC(=O)[C@@H](Cc2cccs2)NC(=O)CCC(=O)Nc2ccc(cc2)C[C@@H](C(=O)O)NC1=O [Compound 67] ([d2Thi][Bip][dE](OtBu)[Phe(4-NH2)]-OH; linker N-4 via Suc),30 to 100 µM
13,O=C(O)CC[C@@H]1NC(=O)[C@H](Cc2ccc(-c3ccccc3)cc2)NC(=O)[C@@H](Cc2cccs2)NC(=O)CCC(=O)Nc2ccc(cc2)C[C@@H](C(=O)O)NC1=O [Compound 68] ([d2Thi][Bip]E[Phe(4-NH2)]-OH; linker N-4 via Suc),> 100 µM
14,O=C(O)CC[C@H]1NC(=O)[C@H](Cc2ccc(-c3ccccc3)cc2)NC(=O)[C@@H](Cc2cccs2)NC(=O)CCC(=O)Nc2ccc(cc2)C[C@@H](C(=O)O)NC1=O [Compound 69] ([d2Thi][Bip][dE][Phe(4-NH2)]-OH; linker N-4 via Suc),> 100 µM
15,N=C(N)NCCC[C@@H]1NC(=O)[C@H](Cc2ccc(-c3ccccc3)cc2)NC(=O)[C@@H](Cc2cccs2)NC(=O)CCC(=O)Nc2ccc(cc2)C[C@@H](C(=O)O)NC1=O [Compound 72] ([d2Thi][Bip]R[Phe(4-NH2)]-OH; linker N-4 via Suc),> 100 µM
16,N=C(N)NCCC[C@H]1NC(=O)[C@H](Cc2ccc(-c3ccccc3)cc2)NC(=O)[C@@H](Cc2cccs2)NC(=O)CCC(=O)Nc2ccc(cc2)C[C@@H](C(=O)O)NC1=O [Compound 73] ([d2Thi][Bip][dR][Phe(4-NH2)]-OH; linker N-4 via Suc),> 100 µM
17,O=C1CCC(=O)N[C@H](Cc2cccs2)C(=O)N[C@@H](Cc2ccc(-c3ccccc3)cc2)C(=O)N[C@H](Cc2cccs2)C(=O)N[C@H](C(=O)O)Cc2ccc(cc2)N1 [Compound 74] ([d2Thi][Bip][d2Thi][Phe(4-NH2)]-OH; linker N-4 via Suc),30 to 100 µM
18,O=C1CCC(=O)N[C@H](Cc2cccs2)C(=O)N[C@@H](Cc2ccc(-c3ccccc3)cc2)C(=O)N[C@H](Cc2ccsc2)C(=O)N[C@H](C(=O)O)Cc2ccc(cc2)N1 [Compound 75] ([d2Thi][Bip][d3Thi][Phe(4-NH2)]-OH; linker N-4 via Suc),30 to 100 µM
19,O=C1CCC(=O)N[C@H](Cc2cccs2)C(=O)N[C@@H](Cc2ccc(-c3ccccc3)cc2)C(=O)N[C@H](c2ccccc2)C(=O)N[C@H](C(=O)O)Cc2ccc(cc2)N1 [Compound 76] ([d2Thi][Bip][dPhg][Phe(4-NH2)]-OH; linker N-4 via Suc),10 to 30 µM
20,O=C1CCC(=O)N[C@H](Cc2cccs2)C(=O)N[C@@H](Cc2ccc(-c3ccccc3)cc2)C(=O)N[C@H](Cc2ccccc2C(F)(F)F)C(=O)N[C@H](C(=O)O)Cc2ccc(cc2)N1 [Compound 77] ([d2Thi][Bip][dPhe(2-CF3)][Phe(4-NH2)]-OH; linker N-4 via Suc),30 to 100 µM
21,O=C1CCC(=O)N[C@H](Cc2cccs2)C(=O)N[C@@H](Cc2ccc(-c3ccccc3)cc2)C(=O)N[C@H](Cc2cccc(C(F)(F)F)c2)C(=O)N[C@H](C(=O)O)Cc2ccc(cc2)N1 [Compound 78] ([d2Thi][Bip][dPhe(3-CF3)][Phe(4-NH2)]-OH; linker N-4 via Suc),> 100 µM
22,O=C1CCC(=O)N[C@H](Cc2cccs2)C(=O)N[C@@H](Cc2ccc(-c3ccccc3)cc2)C(=O)N[C@H](Cc2ccc(C(F)(F)F)cc2)C(=O)N[C@H](C(=O)O)Cc2ccc(cc2)N1 [Compound 79] ([d2Thi][Bip][dPhe(4-CF3)][Phe(4-NH2)]-OH; linker N-4 via Suc),> 100 µM
23,Cc1ccccc1C[C@H]1NC(=O)[C@H](Cc2ccc(-c3ccccc3)cc2)NC(=O)[C@@H](Cc2cccs2)NC(=O)CCC(=O)Nc2ccc(cc2)C[C@@H](C(=O)O)NC1=O [Compound 80] ([d2Thi][Bip][dPhe(2-Me)][Phe(4-NH2)]-OH; linker N-4 via Suc),> 100 µM
24,O=C1CCC(=O)N[C@H](Cc2cccs2)C(=O)N[C@@H](Cc2ccc(-c3ccccc3)cc2)C(=O)N[C@H](Cc2ccc(Cl)cc2)C(=O)N[C@H](C(=O)O)Cc2ccc(cc2)N1 [Compound 81] ([d2Thi][Bip][dPhe(4-Cl)][Phe(4-NH2)]-OH; linker N-4 via Suc),> 100 µM
25,O=C1CCC(=O)N[C@H](Cc2cccs2)C(=O)N[C@@H](Cc2ccccc2)C(=O)N[C@H](Cc2ccccc2)C(=O)N[C@H](C(=O)O)Cc2ccc(cc2)N1 [Compound 83] ([d2Thi]F[dF][Phe(4-NH2)]-OH; linker N-4 via Suc),> 100 µM
26,O=C1CCC(=O)N[C@H](Cc2cccs2)C(=O)N[C@@H](CC2CCCCC2)C(=O)N[C@H](Cc2ccccc2)C(=O)N[C@H](C(=O)O)Cc2ccc(cc2)N1 [Compound 84] ([d2Thi][Cha][dF][Phe(4-NH2)]-OH; linker N-4 via Suc),> 100 µM
27,CC(C)(C)Oc1ccc(C[C@@H]2NC(=O)[C@@H](Cc3cccs3)NC(=O)CCC(=O)Nc3ccc(cc3)C[C@@H](C(=O)O)NC(=O)[C@@H](Cc3ccccc3)NC2=O)cc1 [Compound 86] ([d2Thi]Y(tBu)[dF][Phe(4-NH2)]-OH; linker N-4 via Suc),> 100 µM
28,O=C1CCC(=O)N[C@H](Cc2cccs2)C(=O)N[C@@H](Cc2ccc(O)cc2)C(=O)N[C@H](Cc2ccccc2)C(=O)N[C@H](C(=O)O)Cc2ccc(cc2)N1 [Compound 87] ([d2Thi]Y[dF][Phe(4-NH2)]-OH; linker N-4 via Suc),> 100 µM
29,COc1cccc(C[C@@H]2NC(=O)[C@@H](Cc3cccs3)NC(=O)CCC(=O)Nc3ccc(cc3)C[C@@H](C(=O)O)NC(=O)[C@@H](Cc3ccccc3)NC2=O)c1 [Compound 88] ([d2Thi][Phe(3-OMe)][dF][Phe(4-NH2)]-OH; linker N-4 via Suc),> 100 µM
